Measurements as given in ChEMBL document CHEMBL1201862, “PubChem BioAssay data set” (2004).
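Following 48 hours of exposure in 96-well plates, responses at five concentrations were used to interpolate endpoints linearly. Here, GI50 denotes the concentration required for 50% inhibition of growth.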 Calls of active or inactive are those of the source. Rule as the data show it: active = GI50 up to about 1.1 µM and inactive = higher.

What was measured:
Assay in all cases: NCI-60 cell line screen, 48 h
K562 = test system: K562
SF-295 = test system: SF-295
XF498 = test system: XF498
CCRF-CEM = test system: CCRF-CEM
TK-10 = test system: TK-10
COLO 205 = test system: COLO 205
ACHN = test system: ACHN
NCI-H460 = test system: NCI-H460
LOX IMVI = test system: LOX IMVI
M14 = test system: M14
HCT-15 = test system: HCT-15
SF-268 = test system: SF-268
SNB-75 = test system: SNB-75
UO-31 = test system: UO-31
UACC-62 = test system: UACC-62
HL-60 = test system: HL-60
SK-MEL-28 = test system: SK-MEL-28
KM12 = test system: KM12
NCI-H522 = test system: NCI-H522
MOLT-4 = test system: MOLT-4
NCI-H226 = test system: NCI-H226
DMS-114 = test system: DMS-114
SK-MEL-2 = test system: SK-MEL-2
SN12C = test system: SN12C
NCI-H23 = test system: NCI-H23
OVCAR-5 = test system: OVCAR-5
CAKI-1 = test system: CAKI-1
SW-620 = test system: SW-620
UACC-257 = test system: UACC-257
SR = test system: SR
LXFL 529 = test system: LXFL 529
U-251 = test system: U-251
IGROV-1 = test system: IGROV-1
M19-MEL = test system: M19-MEL
DLD-1 = test system: DLD-1
A549 = test system: A549
RPMI-8226 = test system: RPMI-8226
EKVX = test system: EKVX
SF-539 = test system: SF-539
DMS-273 = test system: DMS-273
RXF 393 = test system: RXF 393
HCT-116 = test system: HCT-116
Malme-3M = test system: Malme-3M
OVCAR-8 = test system: OVCAR-8
HT-29 = test system: HT-29
OVCAR-3 = test system: OVCAR-3
HCC 2998 = test system: HCC 2998
SNB-19 = test system: SNB-19
786-0 = test system: 786-0
SK-OV-3 = test system: SK-OV-3
OVCAR-4 = test system: OVCAR-4
KM-20L2 = test system: KM-20L2
HOP-62 = test system: HOP-62
SNB-78 = test system: SNB-78
Hs-578T = test system: Hs-578T
MDA-MB-231 = test system: MDA-MB-231
T47D = test system: T47D
MDA-MB-435 = test system: MDA-MB-435
PC-3 = test system: PC-3
SK-MEL-5 = test system: SK-MEL-5
MDA-N = test system: MDA-N
NCI/ADR-RES = test system: NCI/ADR-RES
MCF7 = test system: MCF7
DU-145 = test system: DU-145
BT-549 = test system: BT-549
A498 = test system: A498
HOP-92 = test system: HOP-92

Measured: GI50

CC(C)(C)C(=O)OCC(COC(=O)C(C)(C)C)[N+](=O)[O-]
inactive: K562 47.6 µM | SF-295 > 100 µM | XF498 > 100 µM | CCRF-CEM 41.9 µM | TK-10 > 100 µM | COLO 205 57.1 µM | ACHN > 100 µM | NCI-H460 > 100 µM | LOX IMVI > 100 µM | M14 > 100 µM | SF-268 > 100 µM | SNB-75 > 100 µM | UO-31 > 100 µM | UACC-62 47.6 µM | HL-60 27.4 µM | SK-MEL-28 > 100 µM | KM12 > 100 µM | NCI-H522 19.1 µM | MOLT-4 80.2 µM | NCI-H226 > 100 µM | DMS-114 > 100 µM | SK-MEL-2 > 100 µM | SN12C > 100 µM | NCI-H23 > 100 µM | OVCAR-5 > 100 µM | CAKI-1 > 100 µM | SW-620 > 100 µM | UACC-257 > 100 µM | SR 42.4 µM | LXFL 529 > 100 µM | U-251 > 100 µM | IGROV-1 > 100 µM | M19-MEL > 100 µM | DLD-1 > 100 µM | A549 > 100 µM | RPMI-8226 45.3 µM | EKVX > 100 µM | SF-539 > 100 µM | DMS-273 > 100 µM | RXF 393 > 100 µM | HCT-116 > 100 µM | Malme-3M > 100 µM | OVCAR-8 > 100 µM | HT-29 > 100 µM | OVCAR-3 > 100 µM | HCC 2998 > 100 µM | SNB-19 > 100 µM | 786-0 > 100 µM | SK-OV-3 > 100 µM | OVCAR-4 > 100 µM
> 100 µM: HCT-15

C[C@]12CC[C@@H]3c4ccccc4CC[C@H]3[C@@H]1CC[C@@H]2O
50.2 µM: HCT-15
inactive: K562 32.1 µM | SF-295 > 100 µM | CCRF-CEM 62.5 µM | TK-10 > 100 µM | COLO 205 73.8 µM | ACHN > 100 µM | NCI-H460 38.5 µM | LOX IMVI 77.4 µM | M14 > 100 µM | KM-20L2 33.8 µM | SF-268 > 100 µM | SNB-75 54.7 µM | UO-31 39.7 µM | UACC-62 42.6 µM | HL-60 > 10 µM | SK-MEL-28 > 100 µM | KM12 68.7 µM | NCI-H522 49.2 µM | MOLT-4 45.5 µM | SN12C 83 µM | NCI-H23 > 100 µM | SW-620 > 100 µM | UACC-257 > 100 µM | SR 56.1 µM | LXFL 529 > 100 µM | U-251 > 100 µM | IGROV-1 > 100 µM | M19-MEL 78 µM | DLD-1 72.6 µM | HOP-62 > 100 µM | A549 99.3 µM | RPMI-8226 53.2 µM | EKVX 80.5 µM | SF-539 43.1 µM | DMS-273 51.1 µM | RXF 393 27.6 µM | HCT-116 > 100 µM | Malme-3M 44.2 µM | OVCAR-8 > 100 µM | OVCAR-3 > 100 µM | HCC 2998 61.7 µM | SNB-19 > 100 µM | 786-0 > 100 µM | SK-OV-3 > 100 µM | SNB-78 > 100 µM

NS(=O)(=O)c1ccc(NC(=S)NC(=O)Nc2ccc(Cl)c(Cl)c2)cc1
11.4 µM: HCT-15
inactive: Hs-578T 25.1 µM | K562 4.55 µM | SF-295 13.4 µM | CCRF-CEM 16.5 µM | TK-10 25.1 µM | COLO 205 14 µM | ACHN 11.5 µM | NCI-H460 13 µM | LOX IMVI 6.17 µM | M14 7.33 µM | SF-268 12.8 µM | SNB-75 13.7 µM | UO-31 4.56 µM | UACC-62 13.5 µM | HL-60 10.5 µM | SK-MEL-28 17.8 µM | KM12 9.29 µM | NCI-H522 16 µM | MOLT-4 7.6 µM | T47D 10.7 µM | NCI-H226 20.4 µM | MDA-MB-435 14.4 µM | SK-MEL-2 15 µM | SN12C 15.8 µM | PC-3 12.9 µM | NCI-H23 16 µM | SK-MEL-5 16.1 µM | OVCAR-5 12.8 µM | CAKI-1 18.7 µM | MDA-N 14.6 µM | SW-620 16.5 µM | UACC-257 17.9 µM | U-251 14.9 µM | IGROV-1 19.3 µM | NCI/ADR-RES 16 µM | HOP-62 17.4 µM | A549 14.4 µM | RPMI-8226 19.6 µM | EKVX 23.7 µM | MCF7 15 µM | SF-539 18.2 µM | RXF 393 15.3 µM | HCT-116 13.4 µM | Malme-3M 15.2 µM | DU-145 15.5 µM | OVCAR-8 18.4 µM | HT-29 11.5 µM | OVCAR-3 18.5 µM | HCC 2998 14.6 µM | SNB-19 11.9 µM | BT-549 15.4 µM | 786-0 14.9 µM | SK-OV-3 18.5 µM | HOP-92 26.5 µM | OVCAR-4 14.9 µM
active: MDA-MB-231 1.06 µM | SR < 0.01 µM | A498 1.07 µM
